Earlier results on two compounds are cited in US20100092397A1, “Method For Treatment of COPD and Other Pulmonary Diseases” (Activaero GmbH, priority 2008, published 2010).

The conditions of data set [1]: systemic (oral or i.v.) administration; levels above this range result in side effects.
Data set [2] concerns subjects with moderate-severe COPD. The note with it: nebulized ADC4022 12.5 mg twice daily plus budesonide 1 mg twice daily for 4 weeks, versus placebo plus budesonide.

As to `Cn1c(=O)c2[nH]cnc2n(C)c1=O` [Theophylline, theophylline], the “recommended effective range, plasma level” value in data set [1] was 10 to 20 mg/L. For `Cn1c(=O)c2[nH]cnc2n(C)c1=O` [ADC4022], in data set [2], the lung function entry is on record as “stable”.
